# Test system: HEK293E cells
# Assay: Multiple VPA additions, IgG batch titer by ELISA (Example 3)
# Type: cell-based, Human
# Conditions: day 10 after transfection
# Protocol: 10 million suspension-adapted HEK293E cells were resuspended in 0.5 ml of Ex-Cell 293 HEK 293 serum-free medium with 4 mmol/l L-glutamine (Cat. No. 14571C-[…]; Lot No. 6A0093; SAFC Biosciences, Lenexa, Kans., USA, “Ex-Cell” medium; note: “Ex-Cell” medium-as used herein-refers to a medium comprising 4 mmol/l L-glutamine) in a 50-ml filter tube each (TPP AG, Trasadingen, Switzerland; Cat. No. 87050, Lot 20050174). In a separate set, 10 million suspension-adapted CHO DG44 cells were resuspended in 0.5 ml of ProCHO5 serum-free medium with 4 mmol/[…] hypoxanthine and 0.194 g/l thymidine (BioWhittaker (Lonza), Belgium; Cat. No. BE12-[…]; Lot No. 7 MB0040; “ProCHO5” medium; note: “ProCHO5” medium-as used herein-refers to a medium comprising 4 mmol/[…] hypoxanthine and 0.194 g/l thymidine) in a 50-ml filter tube each (TPP AG, Trasadingen, Switzerland; Cat. No. 87050, Lot 20050174). Then 12.5 μg plasmid DNA at a concentration of 1 μg/μl was added in each tube with the following composition 50% (6.25 μg) p-LC (SEQ ID NO: 1) 50% (6.25 μg) p-HC (SEQ ID NO: 3). Plasmid p-LC comprises the genetic information for the production of the light chain of an IgG antibody, plasmid p-HC comprises the genetic information for the production of the heavy chain of an IgG antibody. The particular vector constructs used in the present invention can also be obtained from the inventors. The inventors can be contacted via e-mail at […]. […] In short, Goat anti-human kappa light chain IgG (Biosource) was used for coating the ELISA-plates, and with AP-conjugated goat anti-human gamma chain IgG (Biosource) the synthesized IgG1 was detected. […] Absorption was measured at 405 nm against 490 nm using a microplate reader (SPECTRAmaxTM340; Molecular Devices, Palo Alto, Calif., USA).
smiles,measurement,setting,value
"CCCC(CCC)C(=O)O [VPA, valproic acid]",Batch titer,4 mmol/l VPA at day 0,193 mg/L
same,"batch titers, direct addition versus slowly increasing concentration",,statistically not different
same,Batch titer,"escalating dosage, 1 to 4 mmol/l in 1 mmol/l increments every other day",182 mg/L
